Experimental data taken from ChEMBL document CHEMBL6078667, “Synthesis, Biological Evaluation, and Mechanistic Insights of Rubrolide Analogues as Antitumor Agents” (J Nat Prod, 2024).
Active and inactive are the calls of the source. No cut-off for these calls is given here.

Experiments:
[1] = tested on: HeLa; assay: Cell cycle arrest in human HeLa cells assessed as accumulation of cells at G0/G1 phase at 0.2 uM measured after 24 hrs by PI staining based flow cytometric analysis (reference value: 54.7 %); type: functional
[2] = tested on: HCT-116; assay: Cytotoxicity against human HCT-116 cells assessed as inhibition of cell growth at 10 uM measured after 72 hrs by MTT assay relative to control; type: functional
[3] = Drug localization in human HeLa cell mitochondria incubated for 8 hrs by Mito-tracker green dye based fluorescence microscopic analysis; type: ADME
[4] = tested on: HeLa; assay: Induction of apoptosis in human HeLa cells assessed as early apoptotic cells at 0.4 uM incubated for 24 hrs by Annexin V-FITC/PI staining based flow cytometric analysis (reference value: 2.35 %); type: functional
[5] = tested on: HCT-116; assay: Upregulation of CHOP expression in human HCT-116 cells at 0.2 to 0.4 uM measured after 48 hrs by Western blot analysis; type: functional, cell-based; settings: dose 0.2-0.4 µM
[6] = tested on: MKN-45; assay: Cytotoxicity against human MKN-45 cells assessed as inhibition of cell growth incubated for 72 hrs by MTT assay; type: functional, cell-based; settings: MKN-45, 72 h
[7] = tested on: HeLa; assay: Antitumor activity against human HeLa cells xenografted in female BALB/c nude mouse assessed as reduction in tumor cell weight at 20 mg/kg, ip administered as liposome formulation once daily for 13 days relative to control; type: functional; set-up: scale not given: the % may be the effect or the level left; settings: time 13 day
[8] = Drug localization in human HCT-116 cell mitochondria incubated for 8 hrs by Mito-tracker green dye based fluorescence microscopic analysis; type: ADME; settings: hct-116, 8 h
[9] = tested on: HCT-116; assay: Induction of apoptosis in human HCT-116 cells assessed as early apoptotic cells at 0.4 uM incubated for 24 hrs by Annexin V-FITC/PI staining based analysis (reference value: 7.40 %); type: functional
[10] = tested on: HCT-116; assay: Cell cycle arrest in human HCT-116 cells assessed as accumulation of cells at G0/G1 phase at 0.2 uM measured after 24 hrs by PI staining based flow cytometric analysis (reference value: 51.3 %); type: functional
[11] = tested on: HeLa; assay: Induction of apoptosis in human HeLa cells assessed as necrotic cells at 0.2 uM incubated for 24 hrs by Annexin V-FITC/PI staining based flow cytometric analysis (reference value: 0.44 %); type: functional
[12] = tested on: HCT-116; assay: Induction of apoptosis in human HCT-116 cells assessed as necrotic cells at 0.4 uM incubated for 24 hrs by Annexin V-FITC/PI staining based analysis (reference value: 0.083 %); type: functional
[13] = Toxicity in female BALB/c nude mouse xenografted with human HeLa cells assessed as body weight loss at 5 to 20 mg/kg, ip administered as liposome formulation once daily for 13 days; type: organism-based; settings: in vivo, 312 h, dose 5-20 mg/kg, time 13 day
[14] = tested on: HCT-116; assay: Upregulation of phosphorylated eIF2alpha expression in human HCT-116 cells at 0.2 to 0.4 uM measured after 48 hrs by Western blot analysis; type: functional, cell-based; settings: dose 0.2-0.4 µM
[15] = Cytotoxicity against HHL-5 cells assessed as inhibition of cell growth incubated for 72 hrs by MTT assay; type: toxicity, cell-based; settings: human
[16] = tested on: HCT-116; assay: Cell cycle arrest in human HCT-116 cells assessed as accumulation of cells at G2/M phase at 0.4 uM measured after 24 hrs by PI staining based flow cytometric analysis (reference value: 26.4 %); type: functional
[17] = tested on: HCT-116; assay: Induction of apoptosis in human HCT-116 cells assessed as late apoptotic cells at 0.2 uM incubated for 24 hrs by Annexin V-FITC/PI staining based analysis (reference value: 0.095 %); type: functional
[18] = tested on: HCT-116; assay: Induction of apoptosis in human HCT-116 cells assessed as early apoptotic cells at 0.2 uM incubated for 24 hrs by Annexin V-FITC/PI staining based analysis (reference value: 7.40 %); type: functional
[19] = tested on: HCT-116; assay: Induction of apoptosis in human HCT-116 cells assessed as late apoptotic cells at 0.4 uM incubated for 24 hrs by Annexin V-FITC/PI staining based analysis (reference value: 0.095 %); type: functional
[20] = tested on: HeLa; assay: Upregulation of phosphorylated PERK expression in human HeLa cells at 0.2 to 0.4 uM measured after 48 hrs by Western blot analysis; type: functional, cell-based; settings: dose 0.2-0.4 µM
[21] = tested on: MGC-803; assay: Cytotoxicity against human MGC-803 cells assessed as inhibition of cell growth at 10 uM measured after 72 hrs by MTT assay relative to control; type: functional
[22] = tested on: HCT-116; assay: Cell cycle arrest in human HCT-116 cells assessed as accumulation of cells at G0/G1 phase at 0.4 uM measured after 24 hrs by PI staining based flow cytometric analysis (reference value: 51.3 %); type: functional
[23] = Toxicity in female BALB/c nude mouse xenografted with human HeLa cells assessed as animal survival at 20 mg/kg, ip administered as liposome formulation once daily for 13 days; type: organism-based; settings: in vivo, 312 h, time 13 day
[24] = tested on: HCT-116; assay: Cytotoxicity against human HCT-116 cells assessed as inhibition of cell growth incubated for 72 hrs by MTT assay; type: functional, cell-based; settings: HCT-116, 72 h
[25] = tested on: U-87 MG; assay: Cytotoxicity against human U-87 MG cells assessed as survival rate at 10 uM measured after 72 hrs by MTT assay relative to control; type: functional, U-87MG ATCC; settings: read-out: Survival
[26] = tested on: HCT-116; assay: Induction of apoptosis in human HCT-116 cells assessed as necrotic cells at 0.2 uM incubated for 24 hrs by Annexin V-FITC/PI staining based analysis (reference value: 0.083 %); type: functional
[27] = tested on: HCT-116; assay: Induction of ROS production in human HCT-116 cells assessed as fold change at 0.2 to 0.4 uM incubated for 24 hrs by DCFH-DA probe based flow cytometric analysis; type: functional; settings: dose 0.2-0.4 µM
[28] = tested on: HeLa; assay: Induction of apoptosis in human HeLa cells assessed as viable cells at 0.2 uM incubated for 24 hrs by Annexin V-FITC/PI staining based flow cytometric analysis (reference value: 90.6 %); type: functional; settings: read-out: Activity
[29] = tested on: HeLa; assay: Cell cycle arrest in human HeLa cells assessed as accumulation of cells at G0/G1 phase at 0.4 uM measured after 24 hrs by PI staining based flow cytometric analysis (reference value: 54.7 %); type: functional
[30] = tested on: HeLa; assay: Cell cycle arrest in human HeLa cells assessed as accumulation of cells at G2/M phase at 0.4 uM measured after 24 hrs by PI staining based flow cytometric analysis (reference value: 22.8 %); type: functional
[31] = tested on: U-87 MG; assay: Cytotoxicity against human U-87 MG cells assessed as inhibition of cell growth incubated for 72 hrs by MTT assay; type: functional, cell-based, U-87MG ATCC
[32] = tested on: HCT-116; assay: Cell cycle arrest in human HCT-116 cells assessed as increase in cyclin B1 expression at 0.2 to 0.4 uM incubated for 24 hrs by Western blot analysis; type: functional, cell-based; settings: dose 0.2-0.4 µM
[33] = tested on: HeLa; assay: Induction of apoptosis in human HeLa cells assessed as necrotic cells at 0.4 uM incubated for 24 hrs by Annexin V-FITC/PI staining based flow cytometric analysis (reference value: 0.44 %); type: functional
[34] = tested on: MCF7; assay: Cytotoxicity against human MCF7 cells assessed as inhibition of cell growth at 10 uM measured after 72 hrs by MTT assay relative to control; type: functional
[35] = tested on: U-87 MG; assay: Cytotoxicity against human U-87 MG cells assessed as inhibition of cell growth at 10 uM measured after 72 hrs by MTT assay relative to control; type: functional, U-87MG ATCC
[36] = tested on: HCT-116; assay: Cytotoxicity against human HCT-116 cells assessed as survival rate at 10 uM measured after 72 hrs by MTT assay relative to control; type: functional; settings: read-out: Survival

COc1ccc(C2=CC(=O)O/C2=C\c2ccc(O)cc2)cc1
Activity [1]: 18.8% | inhibition at 10 µM [2]: > 50% | Drug uptake [3]: Not_active | Activity [4]: 10.5% | Activity [5]: Active; Compound Impacts Endoplasmic Reticulum Stress Related Perk-Eif2Alpha-Chop Signalling Pathway | IC50 [6]: 200 nM | Activity [7]: 50% | Drug uptake [8]: Not_active | Activity [9]: 8.33% | Activity [10]: 38.8% | Activity [11]: 0.44% | Activity [12]: 7.38% | Activity [13]: Non-toxic | Activity [14]: Active; Compound Impacts Endoplasmic Reticulum Stress Related Perk-Eif2Alpha-Chop Signalling Pathway | IC50 at 72 h [15]: 6.3 µM | Activity [16]: 31.6% | Activity [17]: 7.71% | Activity [18]: 3.69% | Activity [19]: 14.7% | Activity [20]: Active; Compound Impacts Endoplasmic Reticulum Stress Related Perk-Eif2Alpha-Chop Signalling Pathway | inhibition at 10 µM [21]: > 50% | Activity [22]: 23.2% | Activity [23]: Non-toxic | IC50 [24]: 200 nM | viability at 10 µM [25]: 12.4% | Activity [26]: 5.89% | fold change (FC) [27]: >4 | viability at 0.2 µM [28]: 83.2% | Activity [29]: 8.71% | Activity [30]: 71.1% | IC50 [31]: 2400 nM | Activity [32]: Active | Activity [33]: 1% | inhibition at 10 µM [34]: > 50% | inhibition at 10 µM [35]: > 50% | viability at 10 µM [36]: 19.7%
